The results in this text go back to PubChem BioAssay (NCI).

“And” between values parts separate entries of the source, which are not always exact repeats. Equal entries are not always repeated.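 Each compound was tested at five concentrations against cells in 96-well plates for 48 hours. Here, GI50 denotes the concentration required for 50% inhibition of growth. TGI: concentration producing complete growth inhibition.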 Where only a bound is given, the exact number is not on record here.

Among the test systems are ACHN renal; UACC-62 melanoma; SF-539 CNS; SN12C renal; SNB-75 CNS; OVCAR-3 ovarian; IGROV1 ovarian; M14 melanoma; NCI-H226 lung; HOP-62 NSCLC.
Assay in all cases: inhibition of tumour cell growth, NCI panel, 48 h

Turning to `C#CCC[C@@H]1O[C@@]1(C)CC/C=C(\C)CC/C=C/C=O`, the TGI was over 100 µM in the assay with ACHN renal; 36.6 µM in the assay on UACC-62 melanoma; 38.7 µM in the assay on SF-539 CNS; over 100 µM in the assay on SN12C renal; over 100 µM in the assay on SNB-75 CNS; 85.9 µM with OVCAR-3 ovarian. The TGI in the assay on IGROV1 ovarian is 49.6 µM; in the assay with M14 melanoma it was 48.3 µM; with NCI-H226 lung, over 100 µM; in the assay on HOP-62 NSCLC, over 100 µM.

Take `COc1ccc(/C(=N/NC(N)=O)C2(O)C(=O)Nc3ccc([N+](=O)[O-])cc32)cc1` (stereo not given): the TGI in the assay with ACHN renal was 30.6 µM; in the assay on UACC-62 melanoma it was 43.6 µM; in the assay with SF-539 CNS, 31.3 µM; in the assay on SN12C renal, over 10 µM; in the assay on SNB-75 CNS, 69.8 µM; in the assay on OVCAR-3 ovarian, 33.1 µM. The TGI in the assay on IGROV1 ovarian was 94.7 µM; in the assay with M14 melanoma, 31.1 µM; in the assay with NCI-H226 lung, over 100 µM; with HOP-62 NSCLC, over 100 µM.

Take `COC(=O)[C@@H](NC(=O)NC(=O)NC(=O)CI)C(C)C`: the GI50 is 1.81 µM with ACHN renal; 14.4 µM in the assay on UACC-62 melanoma; 3.92 µM in the assay on SF-539 CNS; 5.46 µM in the assay with SN12C renal; 13.2 µM in the assay on SNB-75 CNS; 2.23 µM in the assay on OVCAR-3 ovarian. For the same compound, the GI50 in the assay with IGROV1 ovarian was 3.87 µM; in the assay on M14 melanoma it was 3.34 µM; with NCI-H226 lung, 16.2 µM; with HOP-62 NSCLC, 18.3 µM. Moreover, the TGI in the assay with ACHN renal was found to be 3.47 µM; with UACC-62 melanoma it was 29.9 µM; in the assay with SF-539 CNS, 14.8 µM; with SN12C renal, 25.7 µM; in the assay on SNB-75 CNS it was 26.8 µM; in the assay with OVCAR-3 ovarian, 4.78 µM. For the same compound, the TGI turned out to be 13.9 µM in the assay with IGROV1 ovarian, 13.1 µM in the assay with M14 melanoma, 38.4 µM with NCI-H226 lung and 33.7 µM in the assay on HOP-62 NSCLC.

Consider `CC[P+](C)(Cc1ccccc1)c1ccccc1` (stereo not given), for which the TGI with ACHN renal, in the assay on UACC-62 melanoma, in the assay with SF-539 CNS, in the assay with SN12C renal, in the assay with SNB-75 CNS and with OVCAR-3 ovarian was over 100 µM throughout. Moreover, the TGI in the assay with IGROV1 ovarian, in the assay with M14 melanoma, in the assay with NCI-H226 lung and with HOP-62 NSCLC was over 100 µM each time.

Take `Cc1nc2sccn2c1/C=C1/C(=O)Nc2ccccc21`: the GI50 in the assay on ACHN renal was 8.29 µM; in the assay with UACC-62 melanoma, 2.52 µM; in the assay with SF-539 CNS, 3.14 µM; with SN12C renal, 5.69 µM; in the assay with SNB-75 CNS it was 17.7 µM; in the assay with OVCAR-3 ovarian it was 2.36 µM. Moreover, the GI50 was 2.27 µM with IGROV1 ovarian, 3.71 µM with M14 melanoma, 23.9 µM with NCI-H226 lung and 5.13 µM in the assay with HOP-62 NSCLC. The TGI in the assay with ACHN renal is over 100 µM; in the assay with UACC-62 melanoma, 21.2 µM; in the assay with SF-539 CNS it was 17.8 µM; in the assay with SN12C renal, over 100 µM; in the assay with SNB-75 CNS it was over 74.2 µM; in the assay on OVCAR-3 ovarian, over 22.8 µM. Besides, the TGI with IGROV1 ovarian is over 25.2 µM; with M14 melanoma, over 100 µM; in the assay on NCI-H226 lung, over 100 µM; in the assay with HOP-62 NSCLC, over 100 µM.

In the case of `COc1ccc(-c2[nH]ncc2-c2cc3c(c(OC)c2)OCC(=O)N3)cc1`, the GI50 was 0.85 µM with ACHN renal; 0.621 µM in the assay on UACC-62 melanoma; 0.372 µM in the assay on SF-539 CNS; 0.63 µM in the assay on SN12C renal; 0.196 µM with SNB-75 CNS; 0.36 µM in the assay with OVCAR-3 ovarian. Besides, the GI50 is 0.674 µM with IGROV1 ovarian, 0.384 µM in the assay on M14 melanoma, 1.66 µM in the assay on NCI-H226 lung and 0.544 µM with HOP-62 NSCLC. Further, the TGI was over 100 µM with ACHN renal; 20.8 µM with UACC-62 melanoma; 2.16 µM with SF-539 CNS; over 100 µM in the assay with SN12C renal; 0.797 µM with SNB-75 CNS; 49 µM in the assay on OVCAR-3 ovarian. Moreover, the TGI in the assay on IGROV1 ovarian was over 100 µM; in the assay with M14 melanoma, over 89.2 µM; with NCI-H226 lung, 41.5 µM; with HOP-62 NSCLC it was 80.3 µM.

For `Cc1ccc(NCCCN2CCN(CCCNc3ccc(C)c4sc5ccccc5c(=O)c34)CC2)c2c(=O)c3ccccc3sc12`, the TGI is over 100 µM with ACHN renal; over 100 µM in the assay with UACC-62 melanoma; over 100 µM with SF-539 CNS; over 100 µM with SN12C renal; 57.1 µM in the assay with SNB-75 CNS; over 100 µM with OVCAR-3 ovarian. The TGI in the assay with IGROV1 ovarian, in the assay on M14 melanoma, in the assay with NCI-H226 lung and in the assay on HOP-62 NSCLC was over 100 µM in each case.

Take `O=C(O)c1ccccc1Cc1ccco1`: the TGI in the assay on ACHN renal, with UACC-62 melanoma, with SF-539 CNS, with SN12C renal, in the assay with SNB-75 CNS and with OVCAR-3 ovarian was over 100 µM each time. Moreover, the TGI in the assay with IGROV1 ovarian, with M14 melanoma, in the assay on NCI-H226 lung and in the assay with HOP-62 NSCLC was over 100 µM each time.

`CN(C)c1ccc2c(c1)C(=O)N(OS(=O)(=O)c1ccc([N+](=O)[O-])cc1)C2=O`: the TGI in the assay on ACHN renal is 59.9 µM; with UACC-62 melanoma, 31.8 µM; in the assay on SF-539 CNS it was 33.8 µM; in the assay with SN12C renal, 56.4 µM; in the assay on SNB-75 CNS it was over 100 µM; with OVCAR-3 ovarian, over 10 µM. Moreover, the TGI is 43 µM with IGROV1 ovarian, 38.8 µM with M14 melanoma, over 100 µM in the assay with NCI-H226 lung and over 100 µM in the assay on HOP-62 NSCLC.

`CNC(=O)c1cc(COc2nnc(Nc3ccc(Cl)cc3)c3ccoc23)ccn1`: the GI50 in the assay on ACHN renal is 3.86 µM and 7.18 µM; in the assay on UACC-62 melanoma, 6.3 µM and > 10 µM; in the assay on SF-539 CNS it was 1.53 µM and 1.89 µM; with SN12C renal, 8.86 µM and > 10 µM; with SNB-75 CNS, 0.769 µM and 2.78 µM; with OVCAR-3 ovarian, 11.1 µM and > 10 µM. Further, the GI50 in the assay on IGROV1 ovarian was 11.4 µM and > 10 µM; in the assay with M14 melanoma, 15.7 µM and > 10 µM; in the assay on NCI-H226 lung, 3.01 µM and 8.73 µM; in the assay on HOP-62 NSCLC it was 3.31 µM and 9.48 µM. Moreover, the TGI in the assay on ACHN renal was 15.4 µM and > 10 µM; in the assay on UACC-62 melanoma it was 30.3 µM and > 10 µM; in the assay with SF-539 CNS, 5.86 µM and > 10 µM; with SN12C renal, 27.2 µM and > 10 µM; in the assay with SNB-75 CNS, 4.71 µM and > 10 µM; with OVCAR-3 ovarian, 26.4 µM and > 10 µM. Moreover, the TGI with IGROV1 ovarian was 27.4 µM and > 10 µM; in the assay on M14 melanoma, 54.9 µM and > 10 µM; in the assay with NCI-H226 lung, 13.1 µM and > 10 µM; with HOP-62 NSCLC, 16 µM and > 10 µM.
